Laboratory results reported in ChEMBL document CHEMBL1128656, “5,6,7,8-Tetrahydroquinolones as antagonists at the glycine site of the NMDA receptor” (Bioorg Med Chem Lett, 1995).
One block for each compound: values may come before it. Active and inactive are the calls of the source. The calls are words filed in the database; no cut-off is given here.

Legend:
[1] = organism: Mus musculus; assay: Effective dose required to protect against audiogenic seizure in DBA/2 mice; type: functional
[2] = molecular target: Glutamate receptor ionotropic, NMDA 1 (Rattus norvegicus, UniProt P35439); assay: Compound was evaluated for its ability to displace [3H]-L-689,560 from rat cortical membrane
[3] = system: Mus musculus; assay: Effective dose required to protect against audiogenic seizure in DBA/2 mice at 10 mg/kg; number protected / number tested is 1/8; type: functional, organism-based; parameters: dose 10 mg/kg
[4] = molecular target: Glutamate receptor ionotropic, NMDA 1 (Rattus norvegicus) (UniProt P35439); assay: Ability of compound to antagonize NMDA induced responses in rat cortical slice; type: functional
[5] = system: Mus musculus; assay: Effective dose required to protect against audiogenic seizure in DBA/2 mice at 10 mg/kg; number protected / number tested is 4/8; type: functional, organism-based; parameters: dose 10 mg/kg
[6] = system: Mus musculus; assay: Effective dose required to protect against audiogenic seizure in DBA/2 mice at 20 mg/kg; number protected / number tested is 8/8; type: functional, organism-based; parameters: dose 20 mg/kg

SMILES: O=c1[nH]c2cc(Cl)ccc2c(O)c1-c1cccc(Oc2ccccc2)c1
ED50 [1]: 0.88 mg/kg

SMILES: Cc1ccc2c(O)c(-c3cccc(Oc4ccccc4)c3)c(O)nc2c1
ED50 [5]: Weak activity

SMILES: CC1CCc2c(nc(O)c(-c3ccccc3)c2O)C1 (stereo not drawn)
ED50 [3]: inactive
ED50 [6]: Active
Kb [4]: 3.7 µM

SMILES: Cc1[nH]c(=O)c(-c2ccccc2)c(O)c1C
IC50 [2]: > 100 µM

SMILES: O=c1[nH]c2cc(Cl)ccc2c(O)c1-c1ccccc1
ED50 [1]: 4.5 mg/kg

SMILES: CCCc1nc(O)c(-c2ccccc2)c(O)c1C
IC50 [2]: ~100 µM

Now from value to compound, other results behind:

IC50 [2]: 0.02 µM
SMILES: Cc1ccc2c(O)c(-c3cccc(Oc4ccccc4)c3)c(=O)[nH]c2c1

IC50 [2]: 3.5 µM
SMILES: CC1CCc2c([nH]c(=O)c(-c3ccccc3)c2O)C1 (stereo not drawn)

Kb [4]: 0.35 µM
SMILES: CC1CCc2c(nc(O)c(-c3cccc(Oc4ccccc4)c3)c2O)C1 (stereo not drawn)
ED50 [3]: inactive

IC50 [2]: 0.057 µM
SMILES: CC1CCc2c([nH]c(=O)c(-c3cccc(Oc4ccccc4)c3)c2O)C1 (stereo not drawn)
